# Test results: PMC7038136 (2020)
# Key:
# [1] = test system: sulfhydryl modified aptamer 31 (DNA, aptamer) ACGCATAGGGTGCGACCACATACGCCCCATGTATGTCCCTTGGTTGTGCCCTATGCGT; assay: electrochemical impedance spectroscopy; conditions: K+ (0.5 M KCl), 10 mM K3[Fe(CN)6]/K4[Fe(CN)6], PBS pH 7.0, 30 min
# [2] = test system: Aptamer 281 (DNA, aptamer) ACGCATAGGGTGTGCATCAGCAGTACCAACGACGTTGTGGTGTGCTCATCCTATGCGT; assay: LSPR (OpenSPR), one-to-one kinetic model; conditions: Na+ (29.2 g NaCl per 500 mL, about 1 M), Mg2+ (0.1 g MgCl2·6H2O per 500 mL, about 1 mM); immobilised compound; amine chip; phosphate buffer pH 7.0; aptamer as analyte, 2.5-40 nM
# [3] = test system: Aptamer 123 (DNA, aptamer) ACGCATAGGGCAACCAGACCAGCCCCATCCCCATGTGACTTCTGTTTGGCCTATGCGT; assay: LSPR (OpenSPR), one-to-one kinetic model; conditions: Na+ (29.2 g NaCl per 500 mL, about 1 M), Mg2+ (0.1 g MgCl2·6H2O per 500 mL, about 1 mM); immobilised compound; amine chip; phosphate buffer pH 7.0; aptamer as analyte, 2.5-40 nM
# [4] = test system: Aptamer 203 (DNA, aptamer) ACGCATAGGGCAAGACAAACTGCGCCATTCAGCATGCTGTTCGGGTTGGCCTATGCGT; assay: LSPR (OpenSPR), one-to-one kinetic model; conditions: Na+ (29.2 g NaCl per 500 mL, about 1 M), Mg2+ (0.1 g MgCl2·6H2O per 500 mL, about 1 mM); immobilised compound; amine chip; phosphate buffer pH 7.0; aptamer as analyte, 2.5-40 nM
# [5] = test system: Aptamer 31 (DNA, aptamer) ACGCATAGGGTGCGACCACATACGCCCCATGTATGTCCCTTGGTTGTGCCCTATGCGT; assay: LSPR (OpenSPR), one-to-one kinetic model; conditions: Na+ (29.2 g NaCl per 500 mL, about 1 M), Mg2+ (0.1 g MgCl2·6H2O per 500 mL, about 1 mM); immobilised compound; amine chip; phosphate buffer pH 7.0; aptamer as analyte, 2.5-40 nM
# [6] = test system: Aptamer 281 (DNA, aptamer) ACGCATAGGGTGTGCATCAGCAGTACCAACGACGTTGTGGTGTGCTCATCCTATGCGT; assay: AuNP colorimetric assay (A620/A520 ratio > 1.1); conditions: 1.0 M NaCl added after incubation to aggregate AuNPs; 0.4 μM aptamer, 1 μg/mL DEHP, 30 min; room temperature
# [7] = test system: Aptamer 203 (DNA, aptamer) ACGCATAGGGCAAGACAAACTGCGCCATTCAGCATGCTGTTCGGGTTGGCCTATGCGT; assay: AuNP colorimetric assay (A620/A520 ratio > 1.1); conditions: 1.0 M NaCl added after incubation to aggregate AuNPs; 0.4 μM aptamer, 1 μg/mL DEHP, 30 min; room temperature
# [8] = test system: Aptamer 123 (DNA, aptamer) ACGCATAGGGCAACCAGACCAGCCCCATCCCCATGTGACTTCTGTTTGGCCTATGCGT; assay: AuNP colorimetric assay (A620/A520 ratio > 1.1); conditions: 1.0 M NaCl added after incubation to aggregate AuNPs; 0.4 μM aptamer, 1 μg/mL DEHP, 30 min; room temperature
# [9] = test system: Aptamer 31 (DNA, aptamer) ACGCATAGGGTGCGACCACATACGCCCCATGTATGTCCCTTGGTTGTGCCCTATGCGT; assay: AuNP colorimetric assay (A620/A520 ratio > 1.1); conditions: 1.0 M NaCl added after incubation to aggregate AuNPs; 0.4 μM aptamer, 1 μg/mL DEHP, 30 min; room temperature
Compound,binding ([1]; only 30.518 pg/mL tested),further results
CC(C)COC(=O)c1ccccc1C(=O)OCC(C)C,no,
CCCCC(CC)COC(=O)c1ccc(OCCCC(=O)O)cc1C(=O)OCC(CC)CCCC (stereo not drawn),,Kd [2]: 43 ± 0.7 nM; Kd [3]: 5.33 ± 0.01 nM; Kd [4]: 2.68 ± 0.2 nM; Kd [5]: 2.26 ± 0.06 nM
CCCCC(CC)COC(=O)c1ccccc1C(=O)OCC(CC)CCCC (stereo not drawn),,binding [6]: yes; binding ([1]; 30.518 pg/mL): yes; binding [7]: yes; binding [8]: yes; binding [9]: yes
CCCCCCCCOC(=O)c1ccccc1C(=O)OCCCCCCCC,no,
CCCCCCOC(=O)c1ccccc1C(=O)OCCCCCC,no,
CCCCOC(=O)c1ccccc1C(=O)OCCCC,no,
CCCCOC(=O)c1ccccc1C(=O)OCc1ccccc1,no,
CCOC(=O)c1ccccc1C(=O)OCC,no,
COC(=O)c1ccccc1C(=O)OC,no,
O=C(OC1CCCCC1)c1ccccc1C(=O)OC1CCCCC1,no,
O=C(Oc1ccccc1)c1ccccc1C(=O)Oc1ccccc1,no,
